Each structure is given as a SMILES string.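 Each compound was tested at five concentrations against cells in 96-well plates for 48 hours. Here, GI50 denotes the concentration required for 50% inhibition of growth.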 Calls of active or inactive are those of the source. Rule as the data show it: active = GI50 up to about 1.1 µM and inactive = higher.

Among the test systems are SNB-75; ACHN; SK-MEL-5; UACC-257; EKVX; KM12; TK-10; SK-MEL-2; K562; A549; SN12C; CCRF-CEM; UACC-62; NCI-H23; CAKI-1.
Holding throughout (assay): NCI tumour cell line growth inhibition, 48 h

For the compound `CCOC(=O)C12CN(C34CC5CC(CC(C5)C3)C4)CC(C(=O)OCC)(C1=O)C(c1ccccc1)OC2c1ccccc1` (configuration not stated), the GI50 in the test with SNB-75 was 39.7 µM (inactive); in the test on ACHN, > 100 µM (inactive); in the test with SK-MEL-5 it was 94.8 µM (inactive); in the test with UACC-257 it was > 100 µM (inactive); in the test on EKVX it was > 100 µM (inactive); in the test with KM12, > 100 µM (inactive). The GI50 was > 100 µM (inactive) in the test on TK-10; > 100 µM (inactive) in the test on SK-MEL-2; 31.4 µM (inactive) with K562; > 100 µM (inactive) with A549; > 10 µM (inactive) in the test on SN12C; 44.3 µM (inactive) in the test with CCRF-CEM. Moreover, the GI50 is > 100 µM (inactive) in the test on UACC-62 and 47.4 µM (inactive) with NCI-H23.

Turning to `CCCCN(CCCC)C(=Nc1ccccc1)N(CCCC)CCCC`, the GI50 in the test with SNB-75 was 16.4 µM (inactive); in the test on ACHN, 3.55 µM (inactive); with UACC-257 it was 7.41 µM (inactive); with EKVX it was 4.35 µM (inactive); in the test with KM12 it was 3.7 µM (inactive); in the test on TK-10, 10.1 µM (inactive). Moreover, the GI50 was 6.64 µM (inactive) in the test on SK-MEL-2; 2.09 µM (inactive) in the test with K562; 7.62 µM (inactive) with A549; 3.89 µM (inactive) in the test on CCRF-CEM; 2.19 µM (inactive) in the test with NCI-H23.

Regarding `Cc1c(-c2coc(-c3ccc([N+](=O)[O-])cc3)n2)c(=O)n(-c2ccccc2)n1C`, the GI50 with SNB-75, in the test on ACHN, in the test on SK-MEL-5, with UACC-257, in the test on EKVX and with KM12 was > 100 µM (inactive) in each case. The GI50 with TK-10, in the test on SK-MEL-2, in the test with A549, in the test with SN12C, in the test with CCRF-CEM and in the test with UACC-62 was > 100 µM (inactive) in each case. In the test with NCI-H23, the GI50 is > 100 µM (inactive).

Regarding `Nc1n/c(=N\c2ccccc2)ss1`, the GI50 in the test with SNB-75, in the test with CAKI-1, with ACHN, with SK-MEL-5, in the test with UACC-257 and in the test with EKVX was > 100 µM (inactive) each time. For the same compound, the GI50 in the test on KM12 is > 100 µM (inactive); in the test on TK-10, > 100 µM (inactive); with K562, 78 µM (inactive); with A549 it was > 100 µM (inactive); in the test with SN12C it was > 100 µM (inactive); in the test with UACC-62, > 100 µM (inactive). Besides, the GI50 in the test on NCI-H23 was > 100 µM (inactive).

`O=C(c1ccccc1)C1S(=O)(=O)OCCOS1(=O)=O`: the GI50 with SNB-75, in the test with CAKI-1, with SK-MEL-5, in the test with UACC-257, in the test on EKVX and in the test on KM12 was > 100 µM (inactive) in each case. Further, the GI50 with TK-10, in the test with SK-MEL-2, in the test with K562, in the test on A549, in the test with SN12C and with CCRF-CEM was > 100 µM (inactive) throughout. In addition, the GI50 with UACC-62 and in the test with NCI-H23 was > 100 µM (inactive) throughout.

For the compound `Cc1ccc(NC(=O)OCC(COc2ccc(Cl)cc2Cl)OC(=O)Nc2ccc(C)cc2)cc1` (configuration not stated), the GI50 in the test on SNB-75 is 27 µM (inactive); with CAKI-1, < 0.01 µM (active); with ACHN it was > 100 µM (inactive); in the test with UACC-257, > 100 µM (inactive); in the test with EKVX, > 100 µM (inactive); with KM12, > 100 µM (inactive). For the same compound, the GI50 in the test with SK-MEL-2, with A549, in the test on SN12C, with UACC-62 and in the test with NCI-H23 was > 100 µM (inactive) each time.

For `CCOC(=O)CC(=O)Sc1ccccc1`, the GI50 with ACHN was 23.1 µM (inactive); in the test with SK-MEL-5, 17.3 µM (inactive); with UACC-257, 28.1 µM (inactive); with EKVX, 19 µM (inactive); in the test on KM12 it was 25.6 µM (inactive); in the test with TK-10, 38.3 µM (inactive). Also, the GI50 was 25.4 µM (inactive) in the test on SK-MEL-2; 19.4 µM (inactive) with K562; 14.6 µM (inactive) with A549; 10.3 µM (inactive) in the test with SN12C; 3.82 µM (inactive) with CCRF-CEM; 16 µM (inactive) in the test on UACC-62. For the same compound, in the test on NCI-H23, the GI50 was 24.5 µM (inactive).

Take `COc1ccccc1NC(=O)CC(=O)n1nc(C)c(/N=N/c2ccccc2C(=O)O)c1C`: the GI50 with SNB-75 is 32.1 µM (inactive); in the test on CAKI-1 it was 47.1 µM (inactive); in the test on SK-MEL-5 it was 68.1 µM (inactive); in the test on UACC-257, > 100 µM (inactive); in the test on EKVX it was 29.6 µM (inactive); in the test on KM12, > 100 µM (inactive). The GI50 in the test with TK-10 is > 100 µM (inactive); in the test with SK-MEL-2 it was > 100 µM (inactive); in the test on K562, 97.1 µM (inactive); with A549 it was > 100 µM (inactive); in the test on SN12C it was > 100 µM (inactive); with CCRF-CEM, > 100 µM (inactive). Also, the results for the GI50 in the test with UACC-62 and in the test on NCI-H23 were 59.7 µM (inactive) and 88.9 µM (inactive), respectively.

Turning to `O=C1C2c3[nH]c4ccccc4c3C3CCCCCCC3C2C(=O)N1c1ccccc1` (configuration not stated), the GI50 in the test with SNB-75 was 2.23 µM (inactive); in the test on ACHN, 8.24 µM (inactive); in the test with SK-MEL-5 it was 33 µM (inactive); in the test on EKVX, 24.9 µM (inactive); in the test on KM12 it was 33.6 µM (inactive); in the test on TK-10 it was 12 µM (inactive). In addition, the GI50 in the test with K562 is 4.52 µM (inactive); with A549, 8.65 µM (inactive); in the test with SN12C it was 6.03 µM (inactive); with CCRF-CEM, 10.2 µM (inactive); in the test on UACC-62 it was 32.9 µM (inactive); with NCI-H23 it was 21 µM (inactive).

With `CC(=O)OCCC(O[Si](c1ccccc1)(c1ccccc1)C(C)(C)C)C(C)(C)O` (configuration not stated), the GI50 is 35.6 µM (inactive) in the test on SNB-75; 29.4 µM (inactive) with ACHN; 51.6 µM (inactive) with SK-MEL-5; 26.5 µM (inactive) with UACC-257; 48.4 µM (inactive) in the test with EKVX; 23.3 µM (inactive) in the test on KM12. Also, the GI50 in the test on TK-10 was 34.4 µM (inactive); in the test on SK-MEL-2, 75 µM (inactive); in the test with K562, 31.6 µM (inactive); in the test with A549, 34.5 µM (inactive); in the test with SN12C it was 18.3 µM (inactive); in the test with CCRF-CEM, 24.6 µM (inactive). The GI50 was 53.8 µM (inactive) in the test with UACC-62 and 24.7 µM (inactive) in the test on NCI-H23.

As for `O=C(CC1(O)C(=O)Nc2ccccc21)c1ccc(Cl)cc1Cl` (configuration not stated), the GI50 in the test with SNB-75, in the test with CAKI-1, in the test with ACHN, in the test on SK-MEL-5, in the test on UACC-257 and in the test with EKVX was > 100 µM (inactive) throughout. Besides, the GI50 with TK-10, in the test with SK-MEL-2, in the test on K562, in the test on A549, in the test on SN12C and in the test with UACC-62 was > 100 µM (inactive) each time. Besides, the GI50 in the test on NCI-H23 is > 100 µM (inactive).

For `N#CC(C(=O)CCC(=O)Nc1ccc(Cl)c(Cl)c1)c1ccc(Cl)cc1` (configuration not stated), the GI50 is 51.1 µM (inactive) in the test with SNB-75; 37.3 µM (inactive) with CAKI-1; 17.4 µM (inactive) in the test with ACHN; 65.6 µM (inactive) in the test with SK-MEL-5; > 100 µM (inactive) in the test on UACC-257; > 100 µM (inactive) in the test with EKVX. The GI50 with KM12 is 47.5 µM (inactive); with TK-10, > 100 µM (inactive); in the test with SK-MEL-2, 22.9 µM (inactive); in the test on K562 it was 14.6 µM (inactive); with A549, 84.9 µM (inactive); with SN12C, > 100 µM (inactive). In addition, the GI50 was 11.6 µM (inactive) in the test on UACC-62 and > 100 µM (inactive) in the test with NCI-H23.

With `O=C1C2CCC(C2)C12CC1(c3ccccc3)C(=O)c3ccccc3N1O2` (configuration not stated), the GI50 in the test on SNB-75, with ACHN, with SK-MEL-5, in the test with UACC-257, in the test with EKVX and in the test on K562 was > 100 µM (inactive) in each case. The GI50 in the test on A549 was > 100 µM (inactive); in the test on SN12C it was > 100 µM (inactive); in the test on CCRF-CEM, > 100 µM (inactive); with UACC-62, 91.8 µM (inactive); in the test with NCI-H23, > 100 µM (inactive).

As for `CC/C=C/c1cc2cc[nH]c2c2c1C(C)C[C@@H]2C` (some centres not stated), the GI50 in the test on SNB-75 was 27.4 µM (inactive); with CAKI-1 it was 32.8 µM (inactive); with ACHN, 73.5 µM (inactive); with SK-MEL-5 it was 21.6 µM (inactive); in the test on UACC-257, 32.8 µM (inactive); in the test on EKVX, 43.2 µM (inactive). For the same compound, the GI50 with KM12 is 19.8 µM (inactive); with TK-10 it was 53.6 µM (inactive); in the test on K562, 25.1 µM (inactive); with A549 it was 35.9 µM (inactive); with SN12C it was 18.9 µM (inactive); in the test with CCRF-CEM it was 23.7 µM (inactive). The GI50 in the test on UACC-62 is 17.8 µM (inactive); in the test with NCI-H23, 21.4 µM (inactive).

Turning to `CC(=O)OC(C[C@H](C)[C@@H]1CC[C@]2(C)C3=CCC4C(C)(C)C(=O)CC[C@]4(C)C3CCC12C)C1OC1(C)C` (some centres not stated), the GI50 in the test with ACHN is 11.5 µM (inactive); in the test with UACC-257 it was 20.3 µM (inactive); with EKVX, 32.7 µM (inactive); in the test with KM12, 20 µM (inactive); in the test on TK-10, 19.1 µM (inactive); with SK-MEL-2, 45.1 µM (inactive). For the same compound, the GI50 is 7.24 µM (inactive) in the test on K562; 21.2 µM (inactive) in the test on A549; 15.9 µM (inactive) in the test with CCRF-CEM; 23.4 µM (inactive) with UACC-62; 20.5 µM (inactive) with NCI-H23.

(Values after ChEMBL document CHEMBL1201862, “PubChem BioAssay data set” (2004).)
